Measurements reported in patent US11730723B2, “Compounds and methods for treating viral infections” (priority 2020, dated 2023).
“And” between values parts separate entries of the source, which are not always exact repeats. Equal values may be shown once. Read-outs that look alike come from different tables or passages of the source.

What was measured:
[1] = system: dengue virus (DENV) serotype 2 strain D2S221; assay: Dengue virus D2S221 inhibition assay in Vero cells (immunostaining); settings: read-out: D2S221 IC50
[2] = system: alpha coronavirus 229E (CoV-229E); assay: CoV-229E virus-induced CPE inhibition in MRC-5 cells (XTT); settings: 6 days
HCoV-OC43 [3] = assay: HCoV-OC43 CPE assay in Huh-7 cells (neutral red uptake, 6 days); assay type: cell-based, human coronavirus (HCoV) OC43 strain; settings: for Raw OD-Absorbance 490 nm: infected Huh-7, neutral red uptake, individual replicates
H292 cells (NCI-H292) = assay: Cytotoxicity in uninfected H292 cells (MTT); settings: CC50, uninfected H292 cells
[4] = system: HBV wild-type strain ayw1; assay: Primary anti-HBV assay in HepG2 2.2.15 cells (qPCR of HBV DNA); settings: Hepatitis B virus, HepG2 2.2.15, 144 h
[5] = Cytotoxicity in HepG2 2.2.15 cells (MTS); assay type: cell-based; settings: human, same assay plate
Huh-7 cells = assay: Cytotoxicity / viability of uninfected Huh-7 cells (XTT, 6 days); settings: for Viability (A490): control; for Viability of Huh-7 Cells (A490): raw absorbance 490 nm
Vero E6 cells = settings: for viability of Vero E6 cells (percent of vehicle alone): 2-day treatment, mean ± SD of duplicates
[6] = system: SARS-CoV-2 (USA-WA1/2020); assay: microbe, parasite or virus in culture; settings: Severe acute respiratory syndrome coronavirus 2, Vero C1008, 48 h, read-out: Live SARS-CoV-2 Antiviral Assay IC50
[7] = system: SARS-CoV-2 (USA-WA1/2020); settings: Compound 1 at 25 μM; HCQ at 5 μM; remdesivir 10 μM
in vitro = settings: African green monkey
MRC-5 cells = assay: Cell viability of uninfected drug control MRC-5 cells (XTT), TC50; settings: read-out: TC50, uninfected MRC-5 cells, 6 days
[8] = Cytotoxicity on MRC-5 cells (CellTiter Glo); settings: human
HCoV-OC43 [9] = assay: HCoV-OC43 efficacy in H292 cells (MTT, 6 days); assay type: cell-based, HCoV-OC43 (Betacoronavirus 1); settings: Betacoronavirus 1, OC43, NCI-H292, read-out: Efficacy
[10] = Cytotoxicity on Huh7 cells (CellTiter Glo); settings: human
HCoV 229E = HCoV 229E CPE assay in MRC-5 cells (CellTiter Glo); assay type: cell-based, human coronavirus (HCoV) 229E; settings: unidentified human coronavirus, MRC5, read-out: HCoV 229E CPE assay EC50
HCoV OC43 = HCoV OC43 CPE assay in Huh7 cells (CellTiter Glo); assay type: cell-based, human coronavirus (HCoV) OC43; settings: Betacoronavirus 1, OC43, Huh-7, read-out: HCoV OC43 CPE Assay EC50

## CCN(CC)CCCC(C)Nc1ccnc2cc(Cl)ccc12 (stereo not drawn) [Chloroquine diphosphate]
[1]
  IC50: 23.7 µM

## CCN(CC)CCCC(C)Nc1ccnc2cc(Cl)ccc12 (stereo not drawn) [Chloroquine]
[2]
  EC50: 490 nM
HCoV-OC43 [3]; CQ 5 μM, relative to uninfected cells (mock), listed as CQ
  Inhibition of OC43 Virus-Induced CPE in Huh-7 Cells: 87.8%
HCoV-OC43 [3]; CQ 5 μM, listed as CQ
  Raw OD-Absorbance 490 nm: 0.693 and 0.689
H292 cells (NCI-H292)
  Cytotoxicity: 46.04 µM

## Nc1ccn([C@@H]2CS[C@H](CO)O2)c(=O)n1 [Compound 3TC, Lamivudine]
[4]
  EC50: 28.3 nM
  EC90: > 2000 nM
[5]
  CC50: > 2000 nM

## CC[C@H]1CN2CCc3cc(OC)c(OC)cc3[C@@H]2C[C@@H]1C[C@H]1NCCc2cc(OC)c(OC)cc21 [Emetine]
Huh-7 cells; 1 μM, percentage viability vs medium only
  Viability (A490): 18.3 ± 0.3%
Huh-7 cells; 1 μM, raw absorbance, individual replicates
  Viability (A490): 0.176 and 0.179
Huh-7 cells; 5 μM, percentage viability vs medium only
  Viability (A490): 8.2 ± 0.7%
Huh-7 cells; 5 μM, raw absorbance, individual replicates
  Viability (A490): 0.104 and 0.111
Huh-7 cells; cytotoxic control, XTT, tested at 5 μM
  cell viability blocked / inhibited: more than 90%

## C=C1[C@H](CO)[C@@H](O)C[C@@H]1n1cnc2c(=O)[nH]c(N)nc21 [Entecavir]
[4]
  EC50: 0.44 nM
  EC90: > 1000 nM
[5]
  CC50: > 1000 nM

## CCN(CCO)CCCC(C)Nc1ccnc2cc(Cl)ccc12 (stereo not drawn) [HCQ, hydroxychloroquine]
Vero E6 cells; 0.16 μM
  viability of Vero E6 cells (percent of vehicle alone): 103.9 ± 6.9%
Vero E6 cells; 0.31 μM
  viability of Vero E6 cells (percent of vehicle alone): 102.3 ± 4.6%
Vero E6 cells; 0.63 μM
  viability of Vero E6 cells (percent of vehicle alone): 103.2 ± 3.4%
Vero E6 cells; 1.25 μM
  viability of Vero E6 cells (percent of vehicle alone): 100.4 ± 0.5%
Vero E6 cells; 2.5 μM
  viability of Vero E6 cells (percent of vehicle alone): 94.4 ± 7.9%
Vero E6 cells; 5 μM
  viability of Vero E6 cells (percent of vehicle alone): 93.4 ± 6.5%
Vero E6 cells; 10 μM
  viability of Vero E6 cells (percent of vehicle alone): 93.8 ± 6.0%
Vero E6 cells; Compound 1 at concentrations lower than 25 μM, HCQ at all concentrations tested
  viability of Vero E6 cells (in words): not significantly changed
[6]
  IC50: ~3000 nM
[7]
  prevention of the SARS-CoV-2 induced CPE (in words): prevented most of the virus-induced CPE
In vitro
  CC50: > 10 µM

## CCC(CC)COC(=O)[C@H](C)N[P@](=O)(OC[C@H]1O[C@@](C#N)(c2ccc3c(N)ncnn23)[C@H](O)[C@@H]1O)Oc1ccccc1 [Remdesivir]
MRC-5 cells
  CC50: > 2000 nM
[8]
  CC50: 27.9 µM
[2]
  EC50: 130 nM
HCoV-OC43 [9]
  EC50: 37.5 µM
H292 cells (NCI-H292)
  Cytotoxicity: >20 µM
[10]
  CC50: 6.17 µM
HCoV 229E
  EC50: 20 nM
HCoV OC43
  EC50: 20 nM

## NC(=O)c1ncn([C@@H]2O[C@H](CO)[C@@H](O)[C@H]2O)n1 [Ribavirin]
[1]
  IC50: 71.1 µM

## CCN(CC)CCNC(=O)c1c(C)[nH]c(/C=C2\C(=O)Nc3ccc(F)cc32)c1C [Sunitinib]
MRC-5 cells
  CC50: 1320 nM
[2]
  EC50: 630 nM
H292 cells (NCI-H292)
  Cytotoxicity: 10 to 50 µM
[1]
  IC50: 4.06 µM

## Sunitinib maleate
HCoV-OC43 [3]; 0.01 μM, mean of duplicates
  Inhibition of OC43 Virus-Induced CPE in Huh-7 Cells: 1.1%
HCoV-OC43 [3]; 0.04 μM, mean of duplicates
  Inhibition of OC43 Virus-Induced CPE in Huh-7 Cells: −1.2%
HCoV-OC43 [3]; 0.12 μM, mean of duplicates
  Inhibition of OC43 Virus-Induced CPE in Huh-7 Cells: −0.1%
HCoV-OC43 [3]; 0.4 μM, mean of duplicates
  Inhibition of OC43 Virus-Induced CPE in Huh-7 Cells: −2.4%
HCoV-OC43 [3]; 1.1 μM, mean of duplicates
  Inhibition of OC43 Virus-Induced CPE in Huh-7 Cells: −1.0%
HCoV-OC43 [3]; 3.3 μM, mean of duplicates
  Inhibition of OC43 Virus-Induced CPE in Huh-7 Cells: 17.9%
HCoV-OC43 [3]; 10 μM, mean of duplicates
  Inhibition of OC43 Virus-Induced CPE in Huh-7 Cells: 21.4%
HCoV-OC43 [3]; 30 μM, mean of duplicates
  Inhibition of OC43 Virus-Induced CPE in Huh-7 Cells: −7.8%
HCoV-OC43 [3]; Huh-7 cells, 6 days, neutral red
  EC50: > 30 µM
HCoV-OC43 [3]; 0.01 μM
  Raw OD-Absorbance 490 nm: 0.120
HCoV-OC43 [3]; 0.04 μM
  Raw OD-Absorbance 490 nm: 0.094
HCoV-OC43 [3]; 0.4 μM
  Raw OD-Absorbance 490 nm: 0.086 and 0.090
HCoV-OC43 [3]; 1.1 μM
  Raw OD-Absorbance 490 nm: 0.094
HCoV-OC43 [3]; 3.3 μM
  Raw OD-Absorbance 490 nm: 0.312 and 0.136
HCoV-OC43 [3]; 10 μM
  Raw OD-Absorbance 490 nm: 0.214 and 0.280
HCoV-OC43 [3]; 30 μM
  Raw OD-Absorbance 490 nm: 0.051 and 0.053
Huh-7 cells; 0.01 μM, 6 days, individual replicates
  Viability of Huh-7 Cells (A490): 0.721 and 0.651
Huh-7 cells; 0.04 μM, 6 days, individual replicates
  Viability of Huh-7 Cells (A490): 0.738 and 0.751
Huh-7 cells; 0.12 μM, 6 days, individual replicates
  Viability of Huh-7 Cells (A490): 0.719 and 0.752
Huh-7 cells; 0.37 μM, 6 days, individual replicates
  Viability of Huh-7 Cells (A490): 0.732 and 0.765
Huh-7 cells; 1.1 μM, 6 days, individual replicates
  Viability of Huh-7 Cells (A490): 0.676 and 0.665
Huh-7 cells; 3.3 μM, 6 days, individual replicates
  Viability of Huh-7 Cells (A490): 0.642 and 0.601
Huh-7 cells; 10 μM, 6 days, individual replicates
  Viability of Huh-7 Cells (A490): 0.543 and 0.554
Huh-7 cells; 30 μM, 6 days, individual replicates
  Viability of Huh-7 Cells (A490): 0.058 and 0.055
Huh-7 cells; 90 μM, 6 days, individual replicates
  Viability of Huh-7 Cells (A490): 0.053 and 0.054
Huh-7 cells; read-out: Cytotoxicity (Huh-7 cells) CC50, 6 days, XTT
  CC50: 13 µM
